Results: US20110111417A1, “METHODS AND KITS FOR MONITORING THE EFFECTS OF IMMUNOMODULATORS ON ADAPTIVE IMMUNITY” (priority 2008, published 2011)

Tests used:
[1] = test system: switch transcripts in mouse spleens; test: qRT-PCR of switch transcripts in mouse spleens; assay type: in vivo; settings: spleen
Text: (§1) Female C57BL/6 mice (Charles River Laboratories, Bedford, Mass.) were used in these studies and treated with a beta-carboline, N-(6-chloro-7-methoxy-9H-beta-carbolin-8-yl)-2-methyl-nicotinamide (ML120B) following three different treatment regimens, A, B, and C. After the treatment, animals were euthanized and tissues were collected and frozen. Germinal centers were identified by immunohistochemistry (IHC) of cryosections (6 μm) using an antibody to mouse Bcl-6. T cells also were identified by IHC of serial cryosections, using an antibody to mouse CD3. The size and/or frequency of germinal centers and T cells were scored by a board-certified anatomic pathologist, using a 0 (low) to 4 (high) scale.
Total ribonucleic acid (RNA) was isolated from 10 spleen cryosections, each […], using the RNEASY® Universal Tissue 8000 Kit (QIAGEN Inc., Valencia, Calif.) on a BIOROBOT® 8000 Workstation (QIAGEN INC., Valencia, Calif.), and deoxyribonucleic acidase (DNASE)-treated according to the manufacturer's protocol. The purity and yield of the RNA were assessed via spectrophotometry from 220 to 750 nm using the NANODROP® ND-1000 (NANODROP Technologies, Wilmington, Del.). The integrity of the RNA was measured with the RNA 6000 NANO LABCHIP® Kit (AGILENT Technologies, Foster City, Calif.) on an AGILENT 2100 Bioanalyzer (AGILENT Technologies, Foster City, Calif.) and calculated using the RNA integrity number (RIN) algorithm (Schroeder et al. (2006) BMC Mol. Biol. 7:3). Deoxyribonucleic acidase-treated RNA was extracted from the samples and stored at −80° C. First strand complementary deoxyribonucleic acid (cDNA) synthesis was performed using a TAQMAN® Gold RT Master Mix (Applied Biosystems, Foster City, Calif.) according to the manufacturer's protocol, except that both oligothymidylic (oligo[dT]) and random hexamers were used for priming. The quality of synthesized cDNA was assessed by generating expression profiles of endogenous reference genes with a real-time polymerase chain reaction (PCR) system, the ABI PRISM® 7900HT Sequence Detection System (Applied Biosystems, Foster City, Calif.). Complementary deoxyribonucleic acid samples were stored at −20° C.
Sequences for all biomarkers (Table 1) were derived from mouse and human deoxyribonucleic acid (DNA) sequence (GENBANK® database [online] maintained by National Center for Biotechnology Information, Bethesda, Md.). Quantitative reverse-transcriptase polymerase chain reaction assays were performed on an ABI PRISM® 7900HT Sequence Detection System (Applied Biosystems, Inc. (Foster City, Calif.) using a SYBR-green detection system (Qiagen Inc., Valencia, Calif.). All quantitative assays were run using universal thermal cycling parameters: hold at 95° C. for 2 minutes to activate the DNA polymerase, then run 40 three-part cycles (95° C. for 20 seconds, 58° C. for 20 seconds, and 76° C. for 20 seconds). Data were analyzed using sequence detection system (SDS) software, Version 1.7 (Applied Biosystems, Inc. (Foster City, Calif.). […] From each amplification plot, a threshold cycle (Ct) value was calculated. […] The Ct values were exported to an EXCEL® (MICROSOFT Corp., Redmond, Wash.) spreadsheet and relative expression (x) was calculated as shown in equation 2.
(§2) Mice were given a single oral dose of ML120B as indicated (n=4/group) for 6 hours. The level of mouse mu heavy chain germline transcript was measured in RNA isolated from serial cryosections by qRT-PCR.
(§3) Mice were given a single oral dose of ML120B as indicated (n=4/group) for 18 hours. The level of mouse mu heavy chain germline transcript was measured in RNA isolated from serial cryosections by qRT-PCR.
Mice were given twice daily oral dose of ML120B by gavage, as indicated (n=4/group) for four days. The level of mouse mu, gamma 3 and gamma 1 heavy chain germline transcript, AICDA transcript, gamma 1 & 2 circle transcript and 18S rRNA were measured in RNA isolated from serial cryosections by qRT-PCR. […]

germinal centers = test: Immunohistochemistry of mouse spleen cryosections (Bcl-6 germinal centers, CD3 T cells), scored by pathologist; assay type: in vivo
Text: as §1, §2, §3
Mice were given twice daily oral dose of ML120B by gavage, as indicated (n=4/group) for four days. The level of mouse mu, gamma 3 and gamma 1 heavy chain germline transcript, AICDA transcript, gamma 1 & 2 circle transcript and 18S rRNA were measured in RNA isolated from serial cryosections by qRT-PCR. […] Germinal centers expressing Bcl-6 decreased 10-fold at 300 mg/kg (FIG. 3). Germline transcripts mu, gamma 3 and gamma 1 decreased from 10-1000-fold at 300 mg/kg (FIG. 3). Transcripts encoding AICDA decreased 100-1000-fold at 300 mg/kg (FIG. 3). Circle transcript gamma 1&2 decreased 10-fold at 100 mg/kg (FIG. 3).

[2] = single oral dose 300 mg/kg, 18 hours
[3] = single oral dose, within first 6 hours
[4] = twice daily oral 300 mg/kg, four days

COc1c(Cl)cc2c([nH]c3cnccc32)c1NC(=O)c1cccnc1C [ML120B, N-(6-chloro-7-methoxy-9H-beta-carbolin-8-yl)-2-methyl-nicotinamide]
reduction in mu germline transcripts [1, 2]: 1000 fold
level of 18S rRNA ([1]; single oral dose, 18 hours): remained unchanged
decrease in level of mu germline transcripts [1, 3]: 50%
decrease in circle transcript gamma 1&2 ([1]; twice daily oral 100 mg/kg, four days): 10 fold
decrease in germline transcripts mu, gamma 3 and gamma 1 [1, 4]: 10-1000 fold
decrease in transcripts encoding AICDA [1, 4]: 100-1000 fold
level of 18S rRNA ([1]; twice daily oral, four days): remained unchanged
reduction in germinal centers (germinal centers; [2]): 10 fold
frequency of T cells (germinal centers; single oral dose, 6 hours): remained unchanged
frequency of T cells (germinal centers; single oral dose, 18 hours): remained unchanged
decrease in frequency of germinal centers (germinal centers; [3]): 50%
decrease in germinal centers expressing Bcl-6 (germinal centers; [4]): 10 fold
